The values below come from ChEMBL document CHEMBL5143718, “Rational Design of a Theranostic Agent Triggered by Endogenous Nitric Oxide in a Cellular Model of Alzheimer's Disease” (J Med Chem, 2022).

Data set [1] has as its system HT-22. The data set can be described thus: Antioxidant activity in mouse HT-22 cells cocultured with BV-2 cells assessed as upregulation of NQO1 mRNA expression at 5 uM after 48 hrs by qRT-PCR analysis. The data set is classed as functional, cell-based. A general note: Quantitative PCR measures a nucleic acid by following its amplification.
In data set [2] the test system is HT-22. The data set can be described thus: Cytotoxicity against mouse HT-22 cells assessed as reduction in cell viability at 5 uM after 36 hrs by CCK8 assay. Format: toxicity, cell-based. To be noted: ht-22, 36 h. Background: Formazan colour is commonly taken as a measure of viable cells.
The test system of data set [3] is HT-22. The data set can be described thus: Cytotoxicity against mouse HT-22 cells assessed as reduction in cell viability at < 5 uM incubated for 24 hrs by CCK8 assay. The data set is classed as toxicity, cell-based. The note with it: ht-22, 24 h.
Data set [4] in a line: Cytotoxicity against mouse HT-22 cells assessed as cell viability at 5 uM after 48 hrs by CCK8 assay. The data set is classed as toxicity, cell-based. To be noted: read-out: Activity.
Data set [5] deals with HT-22. The data set is described as follows: Antioxidant activity in mouse HT-22 cells cocultured with BV-2 cells assessed as reduction in glutamic acid level at 5 uM incubated for 24 hrs. Format: functional.
In data set [6] the test system is BV-2. The data set is described as follows: Cytotoxicity against mouse BV-2 cells assessed as reduction in cell viability at 1 to 10 uM incubated for 24 hrs by CCK8 assay. The note with it: bv-2, 24 h, dose 1-10 µM. The data set is classed as toxicity, cell-based.
In data set [7] the test system is HT-22. The data set can be described thus: Cytotoxicity against mouse HT-22 cells assessed as reduction in cell viability at 5 uM after 24 hrs by CCK8 assay. Format: toxicity, cell-based. To be noted: ht-22, 24 h.
Data set [8] deals with HT-22. The data set can be described thus: Antioxidant activity in mouse HT-22 cells cocultured with BV-2 cells assessed as increase in GSH level at 5 uM incubated for 48 hrs by DCFH-DA staining based microplate reader analysis. Format: functional.
In data set [9] the test system is HT-22. The data set is described as follows: Cytotoxicity against mouse HT-22 cells assessed as increase in live/dead cells ratio at 5 uM after 48 hrs by Live/dead staining based fluorescence microscopic analysis. Format: toxicity, cell-based. To be noted: ht-22, 48 h.
Data set [10] has as its system HT-22. The data set is described as follows: Antioxidant activity in mouse HT-22 cells cocultured with BV-2 cells assessed as ROS scavenging activity at 5 uM incubated for 48 hrs by DCFH-DA staining based microplate reader analysis. Format: functional.
The test system of data set [11] is HT-22. The data set is described as follows: Antioxidant activity in mouse HT-22 cells cocultured with BV-2 cells assessed as upregulation of HO-1 mRNA expression at 5 uM after 48 hrs by qRT-PCR analysis. The data set is classed as functional, cell-based.
Data set [12] concerns HT-22. The data set can be described thus: Cytotoxicity against mouse HT-22 cells assessed as reduction in cell viability at higher concentration incubated for 24 hrs by CCK8 assay. The data set is classed as toxicity, cell-based. The note with it: ht-22, 24 h.
Data set [13] in a line: Effective permeability of compound in PBS buffer at pH 7.4 incubated for 18 hrs by PAMPA assay. The data set is classed as ADME. The note with it: read-out: Peff. A general note: PAMPA measures passive passage across an artificial lipid membrane.
Data set [14] can be described thus: Drug uptake in INFgamma-stimulated mouse BV-2 cells assessed as increase in fluorescence at 10 uM pretreated with INFgamma and L-NAA for 16 hrs followed by compound addition and measured after 3 hrs. Format: ADME, cell-based. To be noted: bv-2, 3 h.
A short description of data set [15]: Drug uptake in INFgamma-stimulated mouse BV-2 cells assessed as increase in fluorescence at 10 uM pretreated with INFgamma and carboxyl-PTIO for 3 hrs followed by compound addition and measured after 3 hrs. Format: ADME, cell-based.
A short description of data set [16]: Drug uptake in mouse HT-22 cells cocultured with BV-2 cells assessed as increase in fluorescence at 10 uM after 12 hrs. The data set is classed as ADME, cell-based. To be noted: ht-22, 12 h.
Data set [17] concerns HT-22. The data set can be described thus: Cytotoxicity against mouse HT-22 cells cocultured with BV-2 cells assessed as increase in live/dead cells ratio at 5 uM after 48 hrs by Live/dead staining based fluorescence microscopic analysis. Format: toxicity, cell-based. To be noted: ht-22, 48 h.
Data set [18] is described as follows: Cytotoxicity against mouse HT-22 cells cocultured with BV-2 cells assessed as cell viability at 5 uM after 48 hrs by CCK8 assay (reference value: 5.19 +/- 1.60%). Format: toxicity, cell-based. To be noted: read-out: Activity.
Data set [19] is described as follows: Drug uptake in mouse BV-2 cells assessed as increase in fluorescence at 10 uM after 3 hrs. Format: ADME, cell-based. The note with it: bv-2, 3 h.
A short description of data set [20]: Drug uptake in L-arginine stimulated mouse BV-2 cells assessed as increase in fluorescence at 10 uM pretreated with L-arginine and L-NAA for 16 hrs followed by compound addition and measured after 3 hrs. Format: ADME, cell-based. The note with it: bv-2, 3 h.
Data set [21] is described as follows: Drug uptake in LPS-stimulated mouse BV-2 cells assessed as increase in fluorescence at 10 uM pretreated with LPS and carboxyl-PTIO for 3 hrs followed by compound addition and measured after 3 hrs. The data set is classed as ADME, cell-based.
The nature of data set [22]: Drug uptake in L-arginine stimulated mouse BV-2 cells assessed as increase in fluorescence at 10 uM pretreated with L-arginine and carboxyl-PTIO for 3 hrs followed by compound addition and measured after 3 hrs. The data set is classed as ADME, cell-based.
Data set [23] is described as follows: Drug uptake in LPS-stimulated mouse BV-2 cells assessed as increase in fluorescence at 10 uM pretreated with LPS and L-NAA for 16 hrs followed by compound addition and measured after 3 hrs. The data set is classed as ADME, cell-based. To be noted: bv-2, 3 h.
Data set [24] deals with BV-2. The data set can be described thus: Cytotoxicity against mouse BV-2 cells assessed as reduction in cell viability at 10 uM incubated for 24 hrs by CCK8 assay. The data set is classed as toxicity, cell-based. To be noted: bv-2, 24 h.

The source made the active and inactive calls. The calls are words filed in the database; no cut-off is given here.

As to `CC12CC3CC(C)(C1)CC(NCCOCCOCCOCCOc1ccc(N4c5ccccc5N(c5ccccc5)c5c4c4ccccc4c4ccccc54)cc1)(C3)C2`, the outcome with HT-22 [1] and with HT-22 [11] was Active. Also, the Activity entry in the data set on HT-22 [2] is “Non-Toxic”; with HT-22 [3] it was “Non-Toxic”; in the data set on HT-22 [5], 0.32; with BV-2 [6], “Non-Toxic”; with HT-22 [7], “Non-Toxic”; in the data set with HT-22 [8], 103.7. The Activity result in the data set on HT-22 [9] is “Non-Toxic”; in the data set on HT-22 [10] it was 732; in the data set on HT-22 [12] it was “Non-Toxic”. Besides, in data set [4], the viability at 48 h, 5 µM turned out to be 45.9%. In addition, in data set [13], the Papp at 18 h amounted to 5.73 ×10⁻⁶ cm/s.

As for `CC12CC3CC(C)(C1)CC(NCCOCCOCCOCCO)(C3)C2`, in data set [4], the viability at 48 h, 5 µM was found to be 20.1%. Besides, the result in the data set with HT-22 [5] was Active.

Turning to `O=C1C(=O)c2ccccc2-c2ccccc21` [9,10-PHENANTHRENEQUINONE], the Drug uptake result in data set [14], in data set [15], in data set [16], in data set [19], in data set [20] and in data set [21] was “Active” each time. Besides, the Drug uptake result in data set [22] and in data set [23] was “Active” throughout. Besides, the Activity entry in the data set on HT-22 [17] is “Non-Toxic”. The viability at 48 h, 5 µM in [18] came to 4.46%.

As to `O=C1C=CC(=O)C=C1` [BENZOQUINONE], the Drug uptake result in data set [14], in [15], in data set [16], in data set [19], in data set [20] and in data set [21] was “Active” each time. Further, the Drug uptake entry in data set [22] and in data set [23] was “Active” throughout. For the same compound, in the data set on HT-22 [17], the Activity entry was “Non-Toxic”. Also, the viability at 48 h, 5 µM in [18] amounted to 4.33%.

For the compound `CC12CC3CC(C)(C1)CC(N)(C3)C2` [MEMANTINE], the Activity result in the data set on HT-22 [2] is recorded as “Non-Toxic”; in the data set with HT-22 [3], “Non-Toxic”; in the data set with BV-2 [24], > 70%; in the data set on HT-22 [5], 0.47; with HT-22 [7], “Non-Toxic”; in the data set with HT-22 [8], 91.9. The results for the Activity in the data set with HT-22 [10] and in the data set with HT-22 [12] were 586.7 and “Non-Toxic”, respectively. For the same compound, in [4], the viability at 48 h, 5 µM was determined as 13.9%.
